PMC9423655, “Huntington’s disease phenotypes are improved via mTORC1 modulation by small molecule therapy” (PLoS ONE, 2022)

Molecular target: T1, Sestrin2/GATOR2 interaction (Homo sapiens, UniProt P58004)
T1 construct: endogenous in cells; host or cells: Flag-WDR24 293T (HEK293T) cells
T1 sequence (P58004 1-480): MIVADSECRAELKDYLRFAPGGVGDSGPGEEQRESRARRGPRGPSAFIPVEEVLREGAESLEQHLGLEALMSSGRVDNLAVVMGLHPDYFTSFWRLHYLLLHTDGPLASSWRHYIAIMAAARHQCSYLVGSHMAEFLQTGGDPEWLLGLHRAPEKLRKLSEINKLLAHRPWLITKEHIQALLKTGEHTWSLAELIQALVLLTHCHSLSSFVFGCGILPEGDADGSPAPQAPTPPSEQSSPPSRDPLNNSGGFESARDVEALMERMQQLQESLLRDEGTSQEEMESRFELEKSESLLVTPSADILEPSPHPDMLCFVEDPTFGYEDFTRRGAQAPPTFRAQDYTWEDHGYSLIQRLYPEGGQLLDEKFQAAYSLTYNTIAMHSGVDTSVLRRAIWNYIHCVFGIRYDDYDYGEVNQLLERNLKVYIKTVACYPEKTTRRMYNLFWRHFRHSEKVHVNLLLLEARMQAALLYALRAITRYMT
Experiment: Intact cells-based Sestrin2/GATOR2 protein-protein interaction assay, Flag-WDR24 293T cells
Type: cell-based
Conditions: 10 minutes
Experimental: Flag-WDR24 293T cells were washed and placed in leucine-free DMEM supplemented 10% dFBS for 50 minutes followed by treatment with NV-5297, leucine or vehicle for 10 minutes. Cells were rinsed once with ice-cold PBS and immediately lysed with Triton lysis buffer (1% Triton, 10 mM β-glycerol phosphate, 10 mM pyrophosphate, 40 mM Hepes pH 7.4, 2.5 mM MgCl2 and 1 tablet of EDTA-free protease inhibitor). The cell lysates were cleared by centrifugation at 13,200 rpm at 4°C in a microcentrifuge for 10 minutes. Prior to immunoprecipitations, an aliquot of lysate was taken for SDS-PAGE and immunoblotting for pS6K1, S6K1 and tubulin. For anti-FLAG immunoprecipitations, the FLAG-M2 affinity gel was washed 3 times with Triton lysis buffer, and 30 μl of a 50/50 slurry of the FLAG-M2 affinity gel was then added to approximately 2 mg of clarified cell lysates and incubated with rotation for 3 hours at 4°C. Following immunoprecipitation, the beads were washed one time with Triton wash buffer containing 500 mM NaCl. Immunoprecipitated proteins were denatured, resolved by SDS-PAGE, and analyzed by immunoblotting.
Next, Sestrin2/GATOR2 protein-protein interactions in response to NV-5297 were measured using cell-free assays and in vitro. For this, HEK293T cells stably expressing flag-WDR24, a component of GATOR2 [44], were used. The cell-free assays utilized Sestrin2/GATOR2 complexes immunoprecipitated from amino acid-starved cells with an anti-flag antibody.

## CC(C)(C[C@H](N)C(=O)O)C(F)(F)F [NV-5297, (S)-2-amino-5,5,5-trifluoro-4,4-dimethylpentanoic acid]
Added to cell cultures, leucine-starved flag-WDR24 HEK293T cells
  Sestrin2/GATOR2 interaction (GATOR2-associated Sestrin2): disrupted the Sestrin2/GATOR2 interaction in a dose-dependent manner
leucine-starved flag-WDR24 HEK-293T cells, S1C Fig
  p70S6K1 (T389 pS6K1) level: increased p70S6K1 in a dose-dependent manner
